Reference: publication PMC2785710 (Bioorganic & medicinal chemistry letters, 2009)

Test: in vitro metabolic stability in pooled mouse liver microsomes
Format: in vitro ADME
Conditions: for half-life: t1/2, mouse liver microsomes

| half-life [min] | microsomal CLint [µL/min/mg] | SMILES |
| --- | --- | --- |
| 348 |  | O=C(Nc1ccccc1Cl)c1cnc2ccc(C3CCNCC3)cn12.O=C(O)C(=O)O [Compound 32] |
| 27 | 51 ± 2.1 | O=C(Nc1ccccc1Cl)c1cnn2ccc(-c3ccccc3)cc12 [Compound 54] |
| 8.3 | 167 ± 4.2 | O=C(Nc1ccccc1Cl)c1cnn2ccc(N3CCCCC3)cc12 [Compound 58] |
| 3.8 | 361 ± 64 | O=C(Nc1ccccc1Cl)c1cnc2ccccn12 [Compound 69] |
| 53 | 26 ± 0.8 | O=C(Nc1ccccc1Cl)c1cnc2ccc(-c3ccccc3)cn12 [Compound 70] |
| 20 | 71 ± 2 | O=C(Nc1ccccc1Cl)c1cnc2ccc(N3CCCCC3)cn12 [Compound 71] |
